Structures are written as SMILES.

The values below come from patent US11865098B1, “Methods and compositions for treating excessive sleepiness” (Axsome Malta Ltd., priority 2017, dated 2024).

Holding throughout (format): in vivo, human
For experiment [1], the system named is adults with OSA and excessive sleepiness. Kind of experiment: Epworth Sleepiness Scale (ESS), phase 3 randomized withdrawal study in OSA. As to conditions: for ESS score after 4 weeks of APC treatment: randomized patients, mITT. How it is done: The ESS is a subjective sleepiness test that is well known in the art and routinely used to measure the sleepiness level of a subject. The scale is intended to measure daytime sleepiness through the use of a short questionnaire that asks the subject to rate his or her probability of falling asleep on a scale of increasing probability from 0 to 3 for eight different situations that most people engage in during their daily lives. The scores for the eight questions are added together to obtain a single number that estimates the subject's average sleep propensity (ASP). A number in the 0-10 range is considered to be normal while 11-12 indicates mild excessive sleepiness, 13-15 indicates moderate excessive sleepiness, and 16 or higher indicates severe excessive sleepiness. Narcolepsy patients have an average score of about 17. Obstructive sleep apnea (OSA) patients with excessive sleepiness have an average score of about 15.
The study was a double-blind, placebo-controlled, enriched, randomized withdrawal design (FIG. 1). In the Titration Phase (weeks 1-2), patients started on a once-daily dose of APC 75 mg and could be titrated up or down every 3 days to reach a maximum tolerated dose of APC 75, 150, or 300 mg. In the Stable-Dose Phase (weeks 3-4), patients continued to receive the dose that they were titrated to in the Titration Phase for 2 weeks. […]
Efficacy was based on change from week 4 to 6 on the co-primary endpoints of MWT and ESS and percentage of patients reported as improved on the PGI-C and Clinician Global Impression of Change (CGI-C); assessed on a 7-point scale from 1 (very much improved) to 7 (very much worse).
MWT and ESS data were analyzed using a mixed-effect model repeated measures (MMRM); PGI-C and CGI-C were evaluated using a chi-square test. […] Safety and tolerability were evaluated based on treatment-emergent adverse events (TEAEs), vital signs, and laboratory values.

In experiment [2] the test system is patients with narcolepsy type 1 or type 2. Nature of the experiment: PGI-C, 12-week phase 3 study in narcolepsy. As for the experimental part: The study was a 12-week, double-blind, randomized, placebo-controlled, parallel-group study. Patients were randomized (1:1:1:1) to receive placebo or APC 75, 150, or 300 mg; randomization was stratified by the presence or absence of cataplexy.
Co-primary endpoints were change from baseline to week 12 in MWT mean sleep latency and ESS score. The key secondary endpoint was the percentage of patients who reported improvement on the Patient Global Impression of Change (PGI-C) (Guy, ECDEU assessment manual for psychopharmacology, revised. US Department of Health, Education, and Welfare publication (ADM 76-338). Rockville, MD: National Institute of Mental Health; 1976) at week 12. Other secondary and exploratory endpoints included changes on function and quality-of-life and changes in the number of cataplexy attacks per week. Safety evaluation included adverse events, laboratory tests, and vital signs.
Efficacy analyses were based on the modified intent-to-treat population (mITT), defined as all patients who were randomized, received at least 1 dose of study drug, and had baseline and at least 1 post-baseline evaluation of both MWT and ESS. MWT and ESS were analyzed using a mixed-effect repeated measures (MMRM) model. PGI-C was analyzed using a chi-square test. […]

Experiment [3] concerns adult patients with OSA and ES. Kind of experiment: ESS, 12-week placebo-controlled parallel study in OSA. As to conditions: 37.5, 75, 150, 300 mg; week 12. As for the experimental part:
The ESS is a subjective sleepiness test that is well known in the art and routinely used to measure the sleepiness level of a subject. The scale is intended to measure daytime sleepiness through the use of a short questionnaire that asks the subject to rate his or her probability of falling asleep on a scale of increasing probability from 0 to 3 for eight different situations that most people engage in during their daily lives. The scores for the eight questions are added together to obtain a single number that estimates the subject's average sleep propensity (ASP). […]
The study was a 12-week, double-blind, placebo-controlled, parallel design study as described in greater detail in Example 1 (Schweitzer et al., Sleep 40(Abstract Supplement):A237. Abstract 0641 (2017)). […] The Functional Outcomes of Sleep questionnaire short version (FOSQ-10) (Chasens et al., Sleep 32(7):915 (2009)) evaluated the effects of ES on functioning. The Work Productivity and Activity Impairment questionnaire for Specific Health Problems (WPAI:SHP) (Reilly et al., Pharmacoeconomics 4(5):353 (1993); Reilly, Work Productivity and Activity Impairment Questionnaire: Specific Health Problem V2.0 (WPAI: SHP). www.reillyassociates.net/WPAI_SHP) evaluated work productivity impairment among employed patients and overall activity impairment outside of work among all patients for the past 7 days. […]

In the case of `NC(=O)OC[C@H](N)Cc1ccccc1` [JZP-110, (R)-2-amino-3-phenylpropyl carbamate], the “Mean decrease in ESS score from week 4 to week 6” value in experiment [1] (Double-Blind Withdrawal Phase, patients who stayed on APC, P<0.0001 vs switched to placebo) is on record as 0.1. The “ESS score after 4 weeks of APC treatment” value in experiment [1] (group decreased from 15.3 at baseline) stood at 6.4; in experiment [1] (group decreased from 16.0 at baseline), 5.9. Besides, the “Percentage of patients who reported improvement in overall condition (PGI-C) relative to placebo” value in experiment [2] (all doses (nominal P-value at 75 mg), week 12, mITT) is recorded as “significantly increased the percentage of patients who reported improvement”. In addition, the “PGI-C improvement, effect at week 1” value in experiment [2] (all doses, as early as week 1) is reported as “Statistically significant effects”. Further, the “Co-primary ESS endpoint” value in experiment [3] is reported as “met at all doses”.
